Test results reported in patent publication US12448388B2, “PRMT5 inhibitors and uses thereof” (Gilead Sciences, Inc., priority 2023, dated 2025).
≈ marks a conversion by molar mass, not a printed value. Read-outs that look alike come from different tables or passages of the source.

Tests used:
[1] = Hepatocyte stability assay, human; type: in vitro ADME; conditions: human hepatocytes, 1 μM
Method: BioreclamationIVT (Baltimore, MD) provided the cryopreserved hepatocytes, hepatocyte thawing (HT) medium, and Krebs-Henseleit buffer (KHB) medium. The stock solution concentration was 1 M in DMSO and was then diluted further in acetonitrile/water (1:1 v/v). All other chemicals were purchased from Sigma-Aldrich (St. Louis, MO) or Thermo Fisher Scientific (Waltham, MA).
The quench solution used to stop reactions in the hepatocyte incubations was comprised of 100% (v/v) acetonitrile. Internal Standard/Quench (IS/Q) solution used to stop reactions with the positive control also contained 200 nM Labetalol.
Metabolic Stability in Cryopreserved Hepatocytes: Test compounds, or the positive control metabolic substrate, was incubated in suspensions of cryopreserved hepatocytes at a final concentration of 1 μM. Vials containing cryopreserved hepatocytes were removed from liquid nitrogen and immediately immersed in a 37° C. water bath. The vials were swirled gently until the contents had thawed. They were then immediately emptied into 48 mL of pre-warmed thawing medium in a 50 mL conical tube. Cells remaining in the vial were re-suspended with 1.0 mL of pre-warmed thawing medium and added to the conical tube. The tube was capped and then gently inverted several times to re-suspend the hepatocytes. The cell suspension was centrifuged at 500×g for 10 minutes at room temperature and the supernatant discarded. The cell pellet was loosened by gently swirling the centrifuge tube. Non-supplemented KHB medium was added to obtain the appropriate target cell density. The viabilities of all cell preparations were ≥85%, assessed by Trypan blue dye exclusion.
For incubations, aliquots of hepatocyte suspension (250 μL containing a cell concentration of 2×10^6 cells/mL) were added to 250 μL of 2 μM substrate (test compound or positive control) in supplemented KHB in duplicate wells in a 24-well plate. Final concentration in the incubations were 1×10^6 cells/mL and 1 μM substrate. A cell-free control incubation (KHB only) was also included. The incubations were carried out with gentle shaking in a 37° C. incubator under a humid atmosphere of 95% air/5% CO2 (v/v). Aliquots (100 μL) were removed after 0, 1, 3, and 6 hours and added to 200 μL quenching solution. The samples were then placed on a shaker for 10 min followed by centrifugation at 3000×g for 20 min. The supernatant was transferred to a new plate and diluted with 100 μL of water to reduce the organic content and then placed on a shaker for 10 mins. Samples were injected and analyzed with methods described below.
Liquid Chromatography: Quantification of positive control and test compound was performed by analyte/internal standard peak area ratios (PAR) measured on a Thermo Scientific™ Q Exactive™ Hybrid Quadrupole-Orbitrap Mass Spectrometer MS/MS with an electrospray interface operating in positive ion mode. The mass spectrometer was coupled to a Dionex Ultimate® 3000 HPLC system. Samples (10 μL aliquots) were injected with a Leap Technologies HTC PAL autosampler. For positive control, the column used was a Thermo Scientific™ Hypersil GOLD™ HPLC column ([…], 50×2.1 mm). Mobile phase A consisted of 95% (v/v) water, 5% (v/v) acetonitrile, and contained 0.1% (v/v) formic acid (FA). Mobile phase B consisted of 95% (v/v) acetonitrile, 5% (v/v) water, and contained 0.1% (v/v) FA. Elution was achieved, at a flow rate of 0.5 mL/min, by a series of linear gradients: initial condition was 5% B at 0 min, isocratic for 20 seconds; then linear gradient to 95% B over 90 seconds, followed by isocratic for 60 seconds at 95% B, and re-equilibrated to initial conditions over 70 seconds.
Metabolic stabilities of positive control and test compound were determined by measuring the rates of disappearance of the parent with time by determining the % of parent remaining at time t (Ct) {Obach 1997}.
Data (% of parent remaining) were plotted on a semi-log scale and fitted using an exponential fit: […]

[2] = system: HCT116 MTAP-deleted cell lines; assay: Cell viability assay (CellTiter-Glo, 7 days), HCT116 MTAP-deleted; type: cell-based; conditions: for Selectivity: HCT116 WT CC50 versus HCT116 MTAP^del CC50; for plasma-adjusted CC50 (paCC50): paCC50 = CC50-HCT116-MTAP^del * (% free CCM/% free human plasma); for CC50: Homo sapiens, HCT116 MTAP-deleted
How it was run: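 CC50 values come from 7-day CellTiter-Glo viability measurements on cells exposed to a dose range of PRMT5 inhibitors dispensed from DMSO stocks.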

[3] = PBS solubility (kinetic solubility from DMSO stocks); type: physicochemical; conditions: 22 °C, aqueous buffer, kinetic from dmso stock; 1x PBS pH 7.4, 1.0% DMSO, 24-hour incubation at ambient temperature
Method: Buffer Preparation: 1×PBS, 7.4: Phosphate Buffered Saline solution 10×, PBS (Fisher Bioreagent, part number BP399-500) 50 mL was added to approximately 450 mL HPLC grade H2O. The volume of the solution was then adjusted to 500 mL for a total dilution factor of 1:10 and a final PBS concentration of 1×. The pH of the final solution was measured and found to be 7.4.
The final DMSO Concentration is 1.0% and maximum theoretical compound concentration is 100 μM (assuming stock concentration of 10 mM). The filter plate was sealed. Following 24-hour incubation at ambient temperature (20.8-24.0° C.), the samples were vacuum filtered, and the filtrates were collected in a 96 well polypropylene plate for analysis. The collection plate was sealed for analysis. Filtrates were injected into the nitrogen detector for quantification on Analiza's Automated Discovery Workstation. The results are reported here in both μM and μg/mL.
Calculation of Results: The equimolar nitrogen response of the detector is calibrated using standards which span the dynamic range of the instrument from 0.08 to 4500 μg/ml nitrogen. The filtrates were quantified with respect to this calibration curve. The calculated solubility values are corrected for background nitrogen present in the DMSO, and the media used to prepare the samples. All reported values for compounds containing adjacent nitrogen atoms in a ring structure should be increased by ˜25%. […] The solubility results presented assume that the samples were free of nitrogen containing impurities and are stable under the assay conditions.

[4] = Cell viability assay (CellTiter-Glo, 7 days), HCT116 WT; type: cell-based; conditions: human, HCT116 WT cells, 7 days of treatment, CTG
Method: Control compounds were analyzed in parallel each time for quality control. In Brief, on Day -1, a serial dilution of stock compounds in DMSO was performed using BioMek liquid handlers and dispensed using Echo acoustic dispenser into 384 well plates. Both tool compounds and sample compounds were spotted in the same plate for a dose response of PRMT5 inhibitors. Compound plates were stored as frozen until the cells were ready for seeding. […] After equilibrating the plate in room temperature, the cells were incubated for 7 days inside the sealed incubator set at 37° C. with 90% humidity and 5% CO2. On Day 7, the viability of cells was measured using a CTG assay kit (CellTitre-Glo;Promega cat no. G7573). Shortly, 40 μl per well of luminescent cell viability assay reagent were dispensed using EL460 liquid dispenser 5 μl cassette. CTG luminescence signal was measured using an EnVision plate reader (PerkinElmer) in accordance with manufacturer's instruction. […] Selectivity with * is artificially high due to limited solubility of the compound hampering accurate measurement of WT CC50.

[5] = MDR1/BCRP assay: permeability in cPgp-KO-MDCK-WT cells; type: in vitro ADME; conditions: dog, pH 7.4
Method: The cells were maintained in an incubator at 37° C., 90% humidity, and 5% CO2 until reaching confluence over 5 days in 96-well transwell plates. Experiments were conducted using an HBSS donor buffer (Invitrogen) containing 10 mM HEPES and 15 mM glucose, adjusted to pH 7.4. The receiver well contained HBSS buffer supplemented with 1% BSA, 10 mM HEPES, and 15 mM glucose, and the pH was adjusted to 7.4. TEER values were measured to assess membrane integrity after an initial equilibration with BSA-free transport buffer for 15 minutes. The experiment was started by adding dosing solutions containing test compounds at 1 μM. Cells were dosed on the apical (A) side or basolateral (B) side at 100 μl and 200 μl, respectively, to determine forward (A to B) and reverse (B to A) permeability. At the 2-hour time point, 50 μl samples were collected from the receiver compartment. Each compound was tested in 2 separate replicate wells for each condition. All samples were immediately collected into plates, and 50 μL of acetonitrile was added. Subsequently, 350 μl of 30:70 methanol: acetonitrile containing internal standard was added to precipitate proteins and stabilize the test compounds. To test for non-specific binding and compound instability, the total amount of the drug was quantified at the end of the experiment and compared to the material present in the original dosing solution as a percentage of the recovery. All samples were analyzed by LC-MS/MS using electrospray ionization.
The apparent permeability, Papp, and % recovery were calculated as follows: […]

[6] = Pharmacokinetics in cassette in male Sprague-Dawley rats for Kp measurement; type: in vivo; conditions: 1 mg/kg, intravenous
Method: E.1 Test Animal: Male Sprague-Dawley Rats (225-300 g) with Indwelling Bilateral Jugular Vain Cannula (JVC/JVC) or Single Jugular Vein Cannula (JVC)
E.2 Pharmaceutical Formulation and Administration
Test compound was dissolved in the vehicle of 10% DMSO, 10% ethanol, 40% polyethylene glycol 300, and 40% propylene glycol to get 1 mg/mL test compound solution. The compound was administered by intravenous administration at a dose of 1 mL/kg. Fasting was not required.
• Anticoagulant: K2EDTA • Volume: approximately 225 μL blood at each bleed • Jugula vein via syringe and needle or another method (non-terminal samples) or exsanguination (cardiac puncture) under isoflurane (or CO2 inhalation if isoflurane is unavailable) anesthesia (terminal time points). Blood samples were collected into K2EDTA tubes • Tissue collection and processing: following the terminal blood collection, the brain and CSF were collected from each animal.

[7] = HCT-116, 168 h, 7 days of treatment, CTG, read-out: CC50-HCT116-MTAP^del
[8] = HCT-116, cell viability, class symbols, read-out: CC50

Human Predicted Hepatocyte CL [1] | solubility at 24 h [3] | Papp A→B at 2 h, 1 µM [5] | Kp ([6]; brain Kp = [brain]/[plasma], rat, read-out: Rat brain Kp) | Kp ([6]; brain Kpu,u = Kp * (plasma free/rat brain free), read-out: Rat brain Kpu,u) | Compound | Selectivity [2] | plasma-adjusted CC50 (paCC50) ([2]; HCT-116) | CC50 [2, 7] | CC50 [2, 8] | CC50 at 7 days [4] | CC50 ([2]; HCT-116, cell viability assay, class symbols, read-out: CC50)
5.17 mL/min/kg |  | 12.6 ×10⁻⁶ cm/s |  |  | Nc1nc2ccc(C(=O)N3CCC[C@@H]4Oc5cc(C(F)(F)F)cc(F)c5[C@@H]43)cc2n2cncc12 [Ff-693, (4-aminoimidazo[1,5-a]quinoxalin-8-yl)((4aS,9bS)-9-fluoro-7-(trifluoromethyl)-3,4,4a,9b-tetrahydrobenzofuro[3,2-b]pyridin-1(2H)-yl)methanone] | 125 | 247 nM | 15 nM |  | 1880 nM | 
6.7 mL/min/kg | 2.5 µM (≈ 1.22 µg/mL) |  |  |  | Nc1nc2ccc(C(=O)N3CCC[C@@H]4Oc5cc(OC(F)(F)F)cc(F)c5[C@@H]43)cc2n2cncc12 [Ff-697, (4-aminoimidazo[1,5-a]quinoxalin-8-yl)((4aS,9bS)-9-fluoro-7-(trifluoromethoxy)-3,4,4a,9b-tetrahydrobenzofuro[3,2-b]pyridin-1(2H)-yl)methanone] | 199 | 289 nM | 25 nM |  | 4990 nM | 
 | 1.6 µM (≈ 0.748 µg/mL) | 10.3 ×10⁻⁶ cm/s | 0.76 | 0.13 | Cc1ncn2c1c(N)nc1ccc(C(=O)N3CCC[C@@H]4Oc5cc(C(F)(F)F)ccc5[C@@H]43)cc12 [Fg-31, (4-amino-3-methylimidazo[1,5-a]quinoxalin-8-yl)((4aS,9bS)-7-(trifluoromethyl)-3,4,4a,9b-tetrahydrobenzofuro[3,2-b]pyridin-1(2H)-yl)methanone] | 113 | 312 nM | 19 nM |  | 2140 nM | < 100 nM

Second part, the molecule before the results:

Compound | Human Predicted Hepatocyte CL [1] | solubility at 24 h [3] | Papp A→B at 2 h, 1 µM [5] | Kp ([6]; brain Kp = [brain]/[plasma], rat, read-out: Rat brain Kp) | Kp ([6]; brain Kpu,u = Kp * (plasma free/rat brain free), read-out: Rat brain Kpu,u) | Selectivity [2] | plasma-adjusted CC50 (paCC50) ([2]; HCT-116) | CC50 [2, 7] | CC50 [2, 8] | CC50 at 7 days [4] | CC50 ([2]; HCT-116, cell viability assay, class symbols, read-out: CC50)
Nc1nc2cc(F)c(C(=O)N3CCC[C@@H]4Oc5cc(C(F)(F)F)ncc5[C@@H]43)cc2n2cncc12 [Ff-117, (4-amino-7-fluoroimidazo[1,5-a]quinoxalin-8-yl)((4aS,9bS)-7-(trifluoromethyl)-3,4,4a,9b-tetrahydrofuro[3,2-b:4,5-c′]dipyridin-1(2H)-yl)methanone] | 0.83 mL/min/kg | 54.7 µM (≈ 25.8 µg/mL) | 11.3 ×10⁻⁶ cm/s |  |  | 69 | 269 nM | 18 nM | < 100 nM | 1250 nM | 
[2H]C1([2H])CC[C@@H]2Oc3cc(C(F)(F)F)ccc3[C@@H]2N1C(=O)c1cc2c(cc1F)nc(N)c1cncn12 [Ff-121, (4-amino-7-fluoroimidazo[1,5-a]quinoxalin-8-yl)((4aS,9bS)-7-(trifluoromethyl)-3,4,4a,9b-tetrahydrobenzofuro[3,2-b]pyridin-1(2H)-yl-2,2-d2)methanone] | 8 mL/min/kg | 4 µM (≈ 1.89 µg/mL) | 15.1 ×10⁻⁶ cm/s |  |  | 153 | 106 nM | 3 nM | < 100 nM | 459 nM | 
